Values quoted from earlier work as cited in publication PMC10144058, “New Hybrid Scaffolds Based on 5-FU/Curcumin: Synthesis, Cytotoxic, Antiproliferative and Pro-Apoptotic Effect” (Pharmaceutics, 2023).

Tests used:
[1] = tested on: SMMC-7721; parameters: method as in PMID 30025345; conditions: cited from earlier work
[2] = tested on: SGC-7901; parameters: method as in PMID 30025345; conditions: cited from earlier work
[3] = tested on: U87; parameters: method as in PMID 30025345; conditions: cited from earlier work
[4] = tested on: MGC-803; parameters: method as in PMID 30025345; conditions: cited from earlier work
[5] = tested on: RPMI8226 cells; parameters: method as in PMID 23784627; conditions: cited from earlier work
[6] = tested on: MM1S cells; parameters: method as in PMID 23784627; conditions: cited from earlier work
[7] = tested on: U266 cells; parameters: method as in PMID 23784627; conditions: cited from earlier work
[8] = tested on: HCT-116 cell line; parameters: method as in PMID 27060762; conditions: cited from earlier work
[9] = tested on: COLO-205 cell line; parameters: method as in PMID 27060762; conditions: cited from earlier work
[10] = tested on: THP-1 cell line; parameters: method as in PMID 27060762; conditions: cited from earlier work
[11] = tested on: tubulin polymerization; parameters: method as in PMID 27060762; conditions: in THP-1 tumor cells; read-out: IC50, inhibition of tubulin polymerization; cited from earlier work
[12] = tested on: HT29 colorectal adenocarcinoma cells; parameters: method as in PMID 33652694; conditions: cited from earlier work
[13] = tested on: metastatic SW620; parameters: method as in PMID 33652694; conditions: cited from earlier work
[14] = tested on: SW620 cells; parameters: method as in PMID 36297411; conditions: cited from earlier work
[15] = tested on: SW480 cells; parameters: method as in PMID 36297411; conditions: cited from earlier work
[16] = tested on: SW620 cell line; parameters: method as in PMID 34062841; conditions: cited from earlier work
[17] = tested on: SW480 human colon adenocarcinoma cells; parameters: method as in PMID 34062841; conditions: cited from earlier work
[18] = tested on: normal 3T3 cells; parameters: method as in PMID 31080076; conditions: normal 3T3 cells (mouse embryonic fibroblast cell line); cited from earlier work
[19] = tested on: Bel-7402/5-FU; parameters: method as in PMID 31080076; conditions: cited from earlier work
[20] = tested on: Bel7402; parameters: method as in PMID 31080076; conditions: cited from earlier work

For `COc1cc(OC)c2c(=O)c(OCCCOc3ccccc3/C=C/C(=O)/C=C/c3ccccn3)c(-c3cc(OC)c(OC)c(OC)c3)oc2c1` [H], the IC50 [1] is given as 3.18 µM, the IC50 [2] is given as 1.08 µM and the IC50 [3] is given as 3.93 µM. For the same compound, the IC50 [4] was 0.56 µM.

In the case of `COc1cc(/C=C/C(=O)C(=Cc2cccc3c2C(=O)N(C2CCC(=O)NC2=O)C3=O)C(=O)/C=C/c2ccc(O)c(OC)c2)ccc1O` (centres unmarked) [I], the IC50 [5] is given as 4.55 µM, the IC50 [6] is given as 6.44 µM and the IC50 [7] is given as 3.96 µM.

For `COc1cc(/C=C/C(=O)/C=C/c2cc(OC)c(OC)c(OC)c2)ccc1OCc1cn(CCOc2cc(=O)oc3ccccc23)nn1` [J], the IC50 [8] is listed as 2.21 µM, the IC50 [9] is listed as 4.68 µM and the IC50 [10] is listed as 0.82 µM. The IC50 [11] was 0.82 µM.

In the case of `COc1cccc(/C=C2\CCC/C(=C\c3cccc(OC)c3OC)C2=O)c1OC` [DMCH, (2E,6E)-2,6-Bis(2,3-Dimethoxybenzylidine) Cyclohexanone], the “increase of the sub-G0/G1 population in the cell cycle” value [12] is given as “more than 70%” and the “increase of the sub-G0/G1 population in the cell cycle” value [13] is given as “more than 70%”.

In the case of `O=c1[nH]c(=O)n(Cc2cn(CCOc3cc(O)c4c(=O)c(-c5ccc(O)cc5)coc4c3)nn2)cc1F` [E], the IC50 [14] is given as 50.6 ± 1.33 µM and the IC50 [15] is given as 62.7 ± 7.26 µM.

For `COc1ccc(/C=C/c2ccc(C(=O)/C=C/c3ccc(O)c(OC)c3)cc2)c(OC)c1` [G], the IC50 [16] is listed as 20.4 µM and the IC50 [17] is listed as 29.2 µM.

In the case of `C=C1C(=O)OC2C1CCC(COC(=O)Cn1cc(F)c(=O)n(Cc3ccc(C(F)(F)F)cc3)c1=O)=CCCC1(C)OC21` (centres unmarked) [D], the IC50 [18] is given as 5.2 µM.

For `COc1cccc2c1C(=O)c1c(O)c3c(c(O)c1C2=O)C[C@@](O)(C(=O)CO)C[C@@H]3O[C@H]1C[C@H](N)[C@H](O)[C@H](C)O1` [Adriamycin], the IC50 [19] is given as 1.14 µM and the IC50 [20] is given as 0.73 µM.
